Laboratory results published in ChEMBL document CHEMBL5465560, “Selectivity Literature for EUbOPEN Chemogenomic Library” (2024).

Key:
[1] = system: Hepatocyte growth factor receptor (Homo sapiens), P08581 [M1250T]; assay: (§1) Selectivity interaction (KinomeScan (DiscoverX)) EUB0000666a MET; settings: at 10 µM
[2] = system: Hepatocyte growth factor receptor (Homo sapiens), P08581 [Y1235D]; assay: as §1; settings: at 10 µM
[3] = biological target: Serine/threonine-protein kinase PAK 4 (Homo sapiens, UniProt O96013); assay: Selectivity interaction (KinomeScan (DiscoverX)) EUB0000666a PAK4; settings: at 10 µM
[4] = biological target: T1, Tyrosine-protein kinase Mer (Homo sapiens) (UniProt Q12866); settings: at 10 µM
T1 sequence (whole entry): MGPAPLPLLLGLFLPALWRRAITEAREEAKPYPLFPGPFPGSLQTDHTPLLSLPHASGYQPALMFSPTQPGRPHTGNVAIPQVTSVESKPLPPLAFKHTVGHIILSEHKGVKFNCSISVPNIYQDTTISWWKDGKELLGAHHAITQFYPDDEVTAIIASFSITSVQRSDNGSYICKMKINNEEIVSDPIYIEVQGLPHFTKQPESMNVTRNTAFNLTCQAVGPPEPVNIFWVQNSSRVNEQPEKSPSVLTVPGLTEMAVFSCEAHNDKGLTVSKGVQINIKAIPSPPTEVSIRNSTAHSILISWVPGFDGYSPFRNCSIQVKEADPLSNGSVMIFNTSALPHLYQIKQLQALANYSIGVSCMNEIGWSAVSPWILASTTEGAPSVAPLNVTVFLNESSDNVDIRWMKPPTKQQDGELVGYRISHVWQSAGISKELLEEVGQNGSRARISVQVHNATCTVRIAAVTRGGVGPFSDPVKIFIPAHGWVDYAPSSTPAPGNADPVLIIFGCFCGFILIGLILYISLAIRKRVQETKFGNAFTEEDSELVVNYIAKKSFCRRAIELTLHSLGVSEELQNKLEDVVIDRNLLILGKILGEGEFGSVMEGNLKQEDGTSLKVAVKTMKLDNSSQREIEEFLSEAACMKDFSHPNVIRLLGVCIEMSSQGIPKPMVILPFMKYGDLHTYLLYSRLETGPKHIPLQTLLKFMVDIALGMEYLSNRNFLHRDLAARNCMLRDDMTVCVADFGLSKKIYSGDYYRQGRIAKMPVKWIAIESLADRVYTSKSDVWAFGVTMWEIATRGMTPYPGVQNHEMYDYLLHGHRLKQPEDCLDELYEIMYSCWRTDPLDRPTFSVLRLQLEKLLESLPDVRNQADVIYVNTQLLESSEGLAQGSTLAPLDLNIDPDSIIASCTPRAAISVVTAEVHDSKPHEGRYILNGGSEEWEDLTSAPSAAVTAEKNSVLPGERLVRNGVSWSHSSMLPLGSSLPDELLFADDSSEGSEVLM

[5] = biological target: Ribosomal protein S6 kinase alpha-1 (Homo sapiens, UniProt Q15418); assay: Selectivity interaction (ActivX KiNativ screen (kinase selectivity in THP-1 cell lysates)) EUB0000639a RPS6KA1; format: subcellular; settings: lysate, at 5 µM
Chain of Ribosomal protein S6 kinase alpha-1 (Q15418 whole entry): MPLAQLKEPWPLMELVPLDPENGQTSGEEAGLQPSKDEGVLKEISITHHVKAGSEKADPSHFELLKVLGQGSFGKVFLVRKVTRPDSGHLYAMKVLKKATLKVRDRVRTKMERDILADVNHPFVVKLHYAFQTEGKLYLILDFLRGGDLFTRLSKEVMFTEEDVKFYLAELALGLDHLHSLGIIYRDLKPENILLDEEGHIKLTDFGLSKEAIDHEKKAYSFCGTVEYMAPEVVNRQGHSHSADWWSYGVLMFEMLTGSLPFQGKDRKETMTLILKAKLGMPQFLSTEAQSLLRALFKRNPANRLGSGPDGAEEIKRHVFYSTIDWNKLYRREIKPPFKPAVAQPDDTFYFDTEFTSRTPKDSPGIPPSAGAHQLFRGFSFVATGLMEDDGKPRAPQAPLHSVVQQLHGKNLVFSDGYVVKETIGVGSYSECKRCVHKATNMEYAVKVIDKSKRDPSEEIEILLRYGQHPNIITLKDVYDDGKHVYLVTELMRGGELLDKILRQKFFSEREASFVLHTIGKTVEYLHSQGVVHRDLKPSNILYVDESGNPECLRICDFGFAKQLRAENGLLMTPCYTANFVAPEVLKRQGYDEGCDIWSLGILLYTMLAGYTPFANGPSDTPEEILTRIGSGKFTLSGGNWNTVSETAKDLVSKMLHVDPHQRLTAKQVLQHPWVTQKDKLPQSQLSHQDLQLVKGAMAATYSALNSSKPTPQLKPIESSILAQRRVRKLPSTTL

[6] = biological target: T2, Serine/threonine-protein kinase 17A (Homo sapiens) (UniProt Q9UEE5); assay: Selectivity interaction (Kinase panel (Invitrogen)) EUB0000639a STK17A; settings: at 200 nM
T2 sequence (whole entry): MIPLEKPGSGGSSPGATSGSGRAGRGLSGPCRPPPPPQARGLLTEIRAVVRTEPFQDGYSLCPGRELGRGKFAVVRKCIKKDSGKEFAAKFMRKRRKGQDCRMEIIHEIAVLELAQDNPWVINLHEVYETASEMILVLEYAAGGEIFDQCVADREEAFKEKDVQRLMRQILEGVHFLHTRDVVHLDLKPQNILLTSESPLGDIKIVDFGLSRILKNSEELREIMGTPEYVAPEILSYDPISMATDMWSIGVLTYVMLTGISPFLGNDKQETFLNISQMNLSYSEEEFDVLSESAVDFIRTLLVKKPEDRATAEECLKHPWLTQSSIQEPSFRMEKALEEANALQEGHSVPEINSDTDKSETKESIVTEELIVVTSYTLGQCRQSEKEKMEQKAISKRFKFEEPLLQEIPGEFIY

[7] = system: Tyrosine-protein kinase ABL1 (Homo sapiens), P00519 [H396P]; assay: Selectivity interaction (KinomeScan (DiscoverX)) EUB0000655a ABL1; settings: at 10 µM
[8] = biological target: Ribosomal protein S6 kinase beta-1 (Homo sapiens, UniProt P23443); assay: Selectivity interaction (KinomeScan (DiscoverX)) EUB0000655a RPS6KB1; settings: at 10 µM
Chain of Ribosomal protein S6 kinase beta-1 (P23443 whole entry, looked up): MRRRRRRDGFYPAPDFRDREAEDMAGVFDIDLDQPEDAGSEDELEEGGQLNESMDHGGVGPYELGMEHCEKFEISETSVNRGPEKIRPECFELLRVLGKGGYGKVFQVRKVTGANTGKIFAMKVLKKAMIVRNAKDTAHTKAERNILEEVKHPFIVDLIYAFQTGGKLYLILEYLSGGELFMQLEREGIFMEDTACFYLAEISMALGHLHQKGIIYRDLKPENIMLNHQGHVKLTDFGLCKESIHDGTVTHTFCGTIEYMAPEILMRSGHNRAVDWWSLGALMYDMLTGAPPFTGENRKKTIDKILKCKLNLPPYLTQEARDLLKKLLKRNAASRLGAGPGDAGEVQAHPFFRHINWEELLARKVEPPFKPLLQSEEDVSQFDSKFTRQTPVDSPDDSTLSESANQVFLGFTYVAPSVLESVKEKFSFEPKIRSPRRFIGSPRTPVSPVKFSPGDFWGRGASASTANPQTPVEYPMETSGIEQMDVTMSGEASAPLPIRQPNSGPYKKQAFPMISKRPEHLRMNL

[9] = biological target: Serine/threonine-protein kinase PAK 6 (Homo sapiens) (UniProt Q9NQU5); assay: Selectivity interaction (ProQinase) EUB0000171b PAK6
Chain of Serine/threonine-protein kinase PAK 6 (Homo sapiens) (Q9NQU5 whole entry, looked up): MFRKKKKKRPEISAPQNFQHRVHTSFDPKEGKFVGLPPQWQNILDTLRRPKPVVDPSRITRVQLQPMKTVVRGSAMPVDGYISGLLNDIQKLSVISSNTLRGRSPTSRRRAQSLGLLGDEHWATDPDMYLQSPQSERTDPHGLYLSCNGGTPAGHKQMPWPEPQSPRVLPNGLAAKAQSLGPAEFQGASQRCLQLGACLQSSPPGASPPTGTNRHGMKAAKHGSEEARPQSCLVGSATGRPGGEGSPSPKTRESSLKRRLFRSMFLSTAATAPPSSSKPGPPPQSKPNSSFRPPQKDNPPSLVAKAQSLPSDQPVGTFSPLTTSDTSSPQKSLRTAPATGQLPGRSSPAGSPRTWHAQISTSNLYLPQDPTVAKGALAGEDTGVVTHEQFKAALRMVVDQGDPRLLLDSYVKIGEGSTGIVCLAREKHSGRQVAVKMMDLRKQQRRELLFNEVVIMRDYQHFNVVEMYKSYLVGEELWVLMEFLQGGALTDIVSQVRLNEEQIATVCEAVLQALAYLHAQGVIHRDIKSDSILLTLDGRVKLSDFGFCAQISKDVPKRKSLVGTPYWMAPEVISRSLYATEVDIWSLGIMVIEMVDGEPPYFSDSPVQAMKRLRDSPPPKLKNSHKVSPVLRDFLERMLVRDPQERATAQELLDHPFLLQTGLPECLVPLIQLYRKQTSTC

[10] = biological target: T3, Dual serine/threonine and tyrosine protein kinase (Homo sapiens) (UniProt Q6XUX3); assay: Selectivity interaction (ProQinase) EUB0000171b DSTYK
T3 sequence (whole entry): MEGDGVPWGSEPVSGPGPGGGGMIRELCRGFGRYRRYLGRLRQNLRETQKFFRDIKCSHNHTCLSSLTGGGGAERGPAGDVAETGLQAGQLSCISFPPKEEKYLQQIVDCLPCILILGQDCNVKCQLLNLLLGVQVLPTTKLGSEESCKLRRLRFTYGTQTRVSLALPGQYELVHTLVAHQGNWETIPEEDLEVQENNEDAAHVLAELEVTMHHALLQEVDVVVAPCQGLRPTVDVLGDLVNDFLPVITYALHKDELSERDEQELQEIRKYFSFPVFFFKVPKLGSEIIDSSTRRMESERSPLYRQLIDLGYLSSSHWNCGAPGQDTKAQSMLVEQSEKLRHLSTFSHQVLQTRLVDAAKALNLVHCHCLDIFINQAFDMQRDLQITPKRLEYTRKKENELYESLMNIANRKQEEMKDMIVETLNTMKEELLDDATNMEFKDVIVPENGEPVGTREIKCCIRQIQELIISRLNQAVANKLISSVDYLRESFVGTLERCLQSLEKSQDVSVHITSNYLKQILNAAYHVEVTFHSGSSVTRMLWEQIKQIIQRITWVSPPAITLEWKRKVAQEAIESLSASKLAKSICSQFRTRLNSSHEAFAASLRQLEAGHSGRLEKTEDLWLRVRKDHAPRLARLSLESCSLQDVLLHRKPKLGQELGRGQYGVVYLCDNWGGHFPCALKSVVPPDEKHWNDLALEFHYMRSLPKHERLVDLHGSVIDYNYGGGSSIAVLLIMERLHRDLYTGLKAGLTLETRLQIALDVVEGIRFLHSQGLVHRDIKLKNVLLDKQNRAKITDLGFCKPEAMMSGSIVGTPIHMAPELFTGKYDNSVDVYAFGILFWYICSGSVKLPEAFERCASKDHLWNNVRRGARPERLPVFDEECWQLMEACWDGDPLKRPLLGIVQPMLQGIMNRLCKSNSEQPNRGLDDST

Chain of Hepatocyte growth factor receptor (Homo sapiens), P08581 [Y1235D] (P08581 whole entry Y1235D): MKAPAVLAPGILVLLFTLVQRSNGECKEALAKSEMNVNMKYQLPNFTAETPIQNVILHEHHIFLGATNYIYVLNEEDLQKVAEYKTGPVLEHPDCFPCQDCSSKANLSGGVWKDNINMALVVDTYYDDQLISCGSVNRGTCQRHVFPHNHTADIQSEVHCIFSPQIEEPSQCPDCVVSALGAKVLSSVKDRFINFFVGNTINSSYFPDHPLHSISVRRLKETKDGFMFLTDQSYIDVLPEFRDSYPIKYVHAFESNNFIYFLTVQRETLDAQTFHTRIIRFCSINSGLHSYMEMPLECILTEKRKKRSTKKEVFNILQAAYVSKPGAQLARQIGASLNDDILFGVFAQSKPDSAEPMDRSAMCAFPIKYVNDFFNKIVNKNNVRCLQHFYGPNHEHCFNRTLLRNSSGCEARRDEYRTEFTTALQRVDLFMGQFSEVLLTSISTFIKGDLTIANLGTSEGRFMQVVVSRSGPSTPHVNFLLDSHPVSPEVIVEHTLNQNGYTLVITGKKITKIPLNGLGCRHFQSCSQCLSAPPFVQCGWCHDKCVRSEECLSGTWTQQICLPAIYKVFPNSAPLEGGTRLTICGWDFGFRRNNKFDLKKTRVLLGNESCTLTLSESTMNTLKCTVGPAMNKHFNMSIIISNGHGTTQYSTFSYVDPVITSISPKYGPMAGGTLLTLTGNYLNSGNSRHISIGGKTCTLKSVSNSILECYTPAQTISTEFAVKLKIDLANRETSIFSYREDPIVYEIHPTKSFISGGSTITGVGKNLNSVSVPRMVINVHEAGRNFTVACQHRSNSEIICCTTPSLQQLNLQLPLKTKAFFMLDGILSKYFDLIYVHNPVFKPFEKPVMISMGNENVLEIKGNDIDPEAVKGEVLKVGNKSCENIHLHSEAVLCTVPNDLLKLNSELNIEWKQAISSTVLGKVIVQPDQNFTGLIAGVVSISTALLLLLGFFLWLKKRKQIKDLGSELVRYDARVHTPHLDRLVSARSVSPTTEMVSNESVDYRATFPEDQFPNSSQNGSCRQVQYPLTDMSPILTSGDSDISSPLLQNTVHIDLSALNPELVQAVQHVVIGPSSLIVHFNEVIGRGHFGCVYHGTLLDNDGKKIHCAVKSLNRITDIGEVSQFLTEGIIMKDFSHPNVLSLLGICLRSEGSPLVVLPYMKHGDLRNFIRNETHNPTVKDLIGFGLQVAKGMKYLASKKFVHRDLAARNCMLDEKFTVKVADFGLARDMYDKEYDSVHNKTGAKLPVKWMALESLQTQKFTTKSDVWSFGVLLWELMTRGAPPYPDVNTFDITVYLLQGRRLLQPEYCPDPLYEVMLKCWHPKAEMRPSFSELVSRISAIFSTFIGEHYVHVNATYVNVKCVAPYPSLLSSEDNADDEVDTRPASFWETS
Chain of Hepatocyte growth factor receptor (Homo sapiens), P08581 [M1250T] (P08581 whole entry M1250T): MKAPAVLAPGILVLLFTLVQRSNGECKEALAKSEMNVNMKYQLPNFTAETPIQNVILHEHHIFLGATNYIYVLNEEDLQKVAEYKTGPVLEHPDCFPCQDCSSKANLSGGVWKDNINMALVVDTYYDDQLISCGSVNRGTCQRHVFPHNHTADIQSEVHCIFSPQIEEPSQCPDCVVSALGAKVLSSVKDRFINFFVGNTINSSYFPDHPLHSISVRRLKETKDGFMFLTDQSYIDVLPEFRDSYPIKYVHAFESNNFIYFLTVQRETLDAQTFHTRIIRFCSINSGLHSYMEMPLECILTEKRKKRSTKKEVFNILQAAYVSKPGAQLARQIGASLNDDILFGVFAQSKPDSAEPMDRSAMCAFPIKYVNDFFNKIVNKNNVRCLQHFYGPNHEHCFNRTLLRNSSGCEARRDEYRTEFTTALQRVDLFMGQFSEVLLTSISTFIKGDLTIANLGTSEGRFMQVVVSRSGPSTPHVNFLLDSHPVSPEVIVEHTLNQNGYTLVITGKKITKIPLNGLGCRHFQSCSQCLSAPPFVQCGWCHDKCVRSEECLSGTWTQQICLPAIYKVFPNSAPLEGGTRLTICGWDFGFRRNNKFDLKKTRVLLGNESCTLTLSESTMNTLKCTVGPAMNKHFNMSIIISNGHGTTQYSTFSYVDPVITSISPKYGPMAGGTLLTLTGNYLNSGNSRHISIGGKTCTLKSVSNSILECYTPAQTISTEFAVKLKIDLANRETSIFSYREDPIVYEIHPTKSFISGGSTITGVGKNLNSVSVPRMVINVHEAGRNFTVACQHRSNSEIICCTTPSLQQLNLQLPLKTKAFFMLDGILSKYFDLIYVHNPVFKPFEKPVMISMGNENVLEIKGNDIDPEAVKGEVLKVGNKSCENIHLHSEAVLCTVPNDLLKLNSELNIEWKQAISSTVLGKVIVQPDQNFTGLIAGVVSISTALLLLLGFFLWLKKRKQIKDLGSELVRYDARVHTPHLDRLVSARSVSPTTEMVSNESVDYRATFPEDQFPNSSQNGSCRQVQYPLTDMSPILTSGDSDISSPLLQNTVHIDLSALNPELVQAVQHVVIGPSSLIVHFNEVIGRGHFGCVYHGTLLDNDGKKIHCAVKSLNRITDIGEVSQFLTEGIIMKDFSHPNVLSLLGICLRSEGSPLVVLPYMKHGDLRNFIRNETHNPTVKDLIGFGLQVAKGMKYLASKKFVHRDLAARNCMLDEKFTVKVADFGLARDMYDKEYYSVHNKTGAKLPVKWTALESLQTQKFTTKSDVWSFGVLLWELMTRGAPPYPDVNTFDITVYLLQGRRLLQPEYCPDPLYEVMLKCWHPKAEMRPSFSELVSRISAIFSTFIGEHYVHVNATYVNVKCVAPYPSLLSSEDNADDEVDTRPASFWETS

SMILES: O=C(NOC[C@H](O)CO)c1ccc(F)c(F)c1Nc1ccc(I)cc1F
- % of control [1]: 92%
- % of control [2]: 100%
- % of control [3]: 100%

SMILES: CCN(CC)CCCCNc1ncc2cc(-c3cc(OC)cc(OC)c3)c(NC(=O)NC(C)(C)C)nc2n1
- % of control [4]: 100%

SMILES: CC[C@@H]1[C@H](F)C(=O)N[C@@H]1COc1nccc2cc(C(N)=O)c(OC)cc12 [ZIMLOVISERTIB]
- % of inhibition [5]: 21.5%
- % of inhibition [6]: 56.9%

SMILES: CN(C)CCOc1ccc(-c2nc(-c3ccncc3)c(-c3ccc4c(c3)CC/C4=N\O)[nH]2)cc1
- % of control [7]: 6.9%
- % of control [8]: 85%

SMILES: C=CC(=O)Nc1cccc(C(=O)Nc2ccc(Nc3cc(-c4[nH]c(SC)nc4C)ccn3)cc2)c1
- % of control ([9]; at 1 µM): 92%
- % of control ([9]; at 5 µM): 76%
- % of control ([10]; at 1 µM): 90%
- % of control ([10]; at 5 µM): 67%
